Article PMC6100082, “Pyridine-Ureas as Potential Anticancer Agents: Synthesis and In Vitro Biological Evaluation” (Molecules : A Journal of Synthetic Chemistry and Natural …, 2018)

How the values were obtained:
Format in all cases: cell-based, human
RPMI-8226 = assay: NCI one-dose SRB assay (Leukemia)
Experimental: (§1) The structures of all the newly prepared pyridine-ureas 8a–n were submitted to the National Cancer Institute (NCI) Developmental Therapeutic Program. Eight compounds 8b, 8d, 8e, 8i, 8j and 8l–n were selected to be examined for their in vitro growth inhibitory activity. The anticancer assays were carried out according to the protocol of the Drug Evaluation Branch, NCI, Bethesda. The selected pyridine-ureas were tested at one dose primary anticancer assay against a panel of approximately 58 cancer lines (concentration 10^−5 M). The tested human cancer cell lines emerged from nine different cancer subtypes: leukemia, colon, melanoma, ovarian, lung, CNS, renal, breast and prostate cancers. The sulforhodamine B (SRB) protein assay was adopted to estimate the cell viability and growth. The results were reported as mean-graph of the percentage growth of the treated cells, and presented as percentage growth inhibition (GI%) caused by the test compounds (Table 2).
(§2) The anticancer assays were performed in accordance with the protocol of the Drug Evaluation Branch, NCI, Bethesda. A 48 h drug exposure protocol was used and sulforhodamine B (SRB) protein assay was applied to estimate the cell viability and growth, as reported earlier.

MOLT-4 = assay: NCI one-dose SRB assay (Leukemia)
Experimental: as §1, §2

SR = assay: NCI one-dose SRB assay (Leukemia)
Experimental: as §1, §2

HL-60(TB) = assay: NCI one-dose SRB assay (Leukemia)
Experimental: as §1, §2

CCRF-CEM = assay: NCI one-dose SRB assay (Leukemia)
Experimental: as §1, §2

K-562 = assay: NCI one-dose SRB assay (Leukemia)
Experimental: as §1, §2

SNB-19 = assay: NCI one-dose SRB assay (CNS Cancer)
Experimental: as §1, §2

SF-268 = assay: NCI one-dose SRB assay (CNS Cancer)
Experimental: as §1, §2

SNB-75 = assay: NCI one-dose SRB assay (CNS Cancer)
Experimental: as §1, §2

U251 = assay: NCI one-dose SRB assay (CNS Cancer)
Experimental: as §1, §2

SF-539 = assay: NCI one-dose SRB assay (CNS Cancer)
Experimental: as §1, §2

SF-295 = assay: NCI one-dose SRB assay (CNS Cancer)
Experimental: as §1, §2

HCC-2998 = assay: NCI one-dose SRB assay (Colon Cancer)
Experimental: as §1, §2

HCT-15 = assay: NCI one-dose SRB assay (Colon Cancer)
Experimental: as §1, §2

SW-620 = assay: NCI one-dose SRB assay (Colon Cancer)
Experimental: as §1, §2

HCT-116 = assay: NCI one-dose SRB assay (Colon Cancer)
Experimental: as §1, §2

HT29 = assay: NCI one-dose SRB assay (Colon Cancer)
Experimental: as §1, §2

KM12 = assay: NCI one-dose SRB assay (Colon Cancer)
Experimental: as §1, §2

COLO 205 = assay: NCI one-dose SRB assay (Colon Cancer)
Experimental: as §1, §2

RXF 393 = assay: NCI one-dose SRB assay (Renal Cancer)
Experimental: as §1, §2

UO-31 = assay: NCI one-dose SRB assay (Renal Cancer)
Experimental: as §1, §2

TK-10 = assay: NCI one-dose SRB assay (Renal Cancer)
Experimental: as §1, §2

SN12C = assay: NCI one-dose SRB assay (Renal Cancer)
Experimental: as §1, §2

786-0 = assay: NCI one-dose SRB assay (Renal Cancer)
Experimental: as §1, §2

A498 = assay: NCI one-dose SRB assay (Renal Cancer)
Experimental: as §1, §2

DU-145 = assay: NCI one-dose SRB assay (Prostate)
Experimental: as §1, §2

PC-3 = assay: NCI one-dose SRB assay (Prostate)
Experimental: as §1, §2

NCI 58 cell line panel = assay: NCI one-dose SRB assay, whole panel / subpanel summary
Experimental: as §1, §2

[1] = Homo sapiens, 10 μM, read-out: Percentage growth inhibition (GI%)

With COc1ccc(-c2ccc(NC(=O)Nc3cccc(C(F)(F)F)c3)c(C)n2)cc1OC [Compound 8i, 1-(6-(3,4-Dimethoxyphenyl)-2-methylpyridin-3-yl)-3-(3-(trifluoromethyl)phenyl) Urea] the inhibition at 10 µM (RPMI-8226; Homo sapiens, RPMI-8226, 10 μM, read-out: Percentage growth inhibition (GI%)) was 66%, the “Growth Percent” value (RPMI-8226; RPMI-8226, 1.00E-5 Molar) was 34.61% and the inhibition at 10 µM (MOLT-4; Homo sapiens, MOLT-4, 10 μM, read-out: Percentage growth inhibition (GI%)) was 61%. The “Growth Percent” value (MOLT-4; MOLT-4, 1.00E-5 Molar) was 39.58%, the “Growth Percent” value (SR; 1.00E-5 Molar) was 51.13% and the inhibition at 10 µM (SR; [1]) was 49%. For the same compound, the “Growth Percent” value (HL-60(TB); 1.00E-5 Molar) was 61.08%, the inhibition at 10 µM (HL-60(TB); [1]) was 39% and the “Growth Percent” value (CCRF-CEM; 1.00E-5 Molar) was 50.94%. For the same compound, the inhibition at 10 µM (CCRF-CEM; [1]) was 50%, the inhibition at 10 µM (K-562; Homo sapiens, K562, K-562, 10 μM, read-out: Percentage growth inhibition (GI%)) was 69% and the “Growth Percent” value (K-562; K-562, 1.00E-5 Molar) was 31.93%. The inhibition at 10 µM (SNB-19; Homo sapiens, SNB-19, 10 μM, read-out: Percentage growth inhibition (GI%)) was 22%, the “Growth Percent” value (SNB-19; SNB-19, 1.00E-5 Molar) was 78.84% and the inhibition at 10 µM (SF-268; Homo sapiens, SF-268, 10 μM, read-out: Percentage growth inhibition (GI%)) was 25%. For the same compound, the “Growth Percent” value (SF-268; SF-268, 1.00E-5 Molar) was 75.96%, the inhibition at 10 µM (SNB-75; Homo sapiens, SNB-75, 10 μM, read-out: Percentage growth inhibition (GI%)) was 34% and the “Growth Percent” value (SNB-75; SNB-75, 1.00E-5 Molar) was 66.71%. The inhibition at 10 µM (U251; Homo sapiens, U-251, U251, 10 μM, read-out: Percentage growth inhibition (GI%)) was 37%, the “Growth Percent” value (U251; U251, 1.00E-5 Molar) was 63.88% and the inhibition at 10 µM (SF-539; Homo sapiens, SF-539, 10 μM, read-out: Percentage growth inhibition (GI%)) was 23%. For the same compound, the “Growth Percent” value (SF-539; SF-539, 1.00E-5 Molar) was 77.24%, the inhibition at 10 µM (SF-295; Homo sapiens, SF-295, 10 μM, read-out: Percentage growth inhibition (GI%)) was 35% and the “Growth Percent” value (SF-295; SF-295, 1.00E-5 Molar) was 65.28%. For the same compound, the “Growth Percent” value (HCC-2998; HCC-2998, 1.00E-5 Molar) was 84.39%, the inhibition at 10 µM (HCC-2998; Homo sapiens, HCC-2998, 10 μM, read-out: Percentage growth inhibition (GI%)) was 16% and the “Growth Percent” value (HCT-15; HCT-15, 1.00E-5 Molar) was 48.77%. For the same compound, the inhibition at 10 µM (HCT-15; Homo sapiens, HCT-15, 10 μM, read-out: Percentage growth inhibition (GI%)) was 52%, the inhibition at 10 µM (SW-620; Homo sapiens, SW-620, 10 μM, read-out: Percentage growth inhibition (GI%)) was under 10% and the “Growth Percent” value (SW-620; SW-620, 1.00E-5 Molar) was 91.19%. The “Growth Percent” value (HCT-116; HCT-116, 1.00E-5 Molar) was 17.63%, the inhibition at 10 µM (HCT-116; Homo sapiens, HCT-116, 10 μM, read-out: Percentage growth inhibition (GI%)) was 83% and the “Growth Percent” value (HT29; HT29, 1.00E-5 Molar) was 59.96%. The inhibition at 10 µM (HT29; Homo sapiens, HT-29, HT29, 10 μM, read-out: Percentage growth inhibition (GI%)) was 41%, the inhibition at 10 µM (KM12; Homo sapiens, KM12, 10 μM, read-out: Percentage growth inhibition (GI%)) was 34% and the “Growth Percent” value (KM12; KM12, 1.00E-5 Molar) was 66.00%. For the same compound, the “Growth Percent” value (COLO 205; COLO 205, 1.00E-5 Molar) was 88.09%, the inhibition at 10 µM (COLO 205; Homo sapiens, COLO 205, 10 μM, read-out: Percentage growth inhibition (GI%)) was 12% and the inhibition at 10 µM (RXF 393; Homo sapiens, RXF 393, 10 μM, read-out: Percentage growth inhibition (GI%)) was 23%. For the same compound, the “Growth Percent” value (RXF 393; RXF 393, 1.00E-5 Molar) was 77.55%, the inhibition at 10 µM (UO-31; Homo sapiens, UO-31, 10 μM, read-out: Percentage growth inhibition (GI%)) was 26% and the “Growth Percent” value (UO-31; UO-31, 1.00E-5 Molar) was 74.95%. For the same compound, the inhibition at 10 µM (TK-10; Homo sapiens, TK-10, 10 μM, read-out: Percentage growth inhibition (GI%)) was 21%, the “Growth Percent” value (TK-10; TK-10, 1.00E-5 Molar) was 79.75% and the “Growth Percent” value (SN12C; 1.00E-5 Molar) was 79.32%. For the same compound, the inhibition at 10 µM (SN12C; [1]) was 21%, the “Growth Percent” value (786-0; 786-0, 1.00E-5 Molar) was 69.08% and the inhibition at 10 µM (786-0; Homo sapiens, 786-0, 10 μM, read-out: Percentage growth inhibition (GI%)) was 31%. For the same compound, the “Growth Percent” value (A498; A498, 1.00E-5 Molar) was 61.34%, the inhibition at 10 µM (A498; Homo sapiens, A498, 10 μM, read-out: Percentage growth inhibition (GI%)) was 39% and the “Growth Percent” value (DU-145; DU-145, 1.00E-5 Molar) was 82.57%. For the same compound, the inhibition at 10 µM (DU-145; Homo sapiens, DU-145, 10 μM, read-out: Percentage growth inhibition (GI%)) was 18%, the inhibition at 10 µM (PC-3; Homo sapiens, PC-3, 10 μM, read-out: Percentage growth inhibition (GI%)) was 73% and the “Growth Percent” value (PC-3; PC-3, 1.00E-5 Molar) was 27.45%. The inhibition at 10 µM (NCI 58 cell line panel; Homo sapiens, 10 μM, one dose, read-out: mean inhibition (mean % growth inhibition over NCI 58 cell line panel)) was 22 to 34% and the “Mean Growth Percent” value (NCI 58 cell line panel; One Dose Mean Graph, 1.00E-5 Molar) was 67.33%.
